Patent US10344026B2, “Compositions and methods of targeting mutant K-ras” (NANTBIO, INC., priority 2017, dated 2019)
pEC50, pIC50: −log10 of the molar value.

How the values were obtained:
Type in all cases: cell-based
wild type K-Ras = biological target: T1, wild type K-Ras (Homo sapiens, UniProt P01116); assay: G-LISA Ras activation, 293H cells transfected with Ras wild-type, EGF stimulated; settings: compound 1 hour, then 100 ng/ml EGF 2 minutes
T1 construct: expressed in transfected cells; host or cells: 293H cells
T1 sequence (P01116 whole entry): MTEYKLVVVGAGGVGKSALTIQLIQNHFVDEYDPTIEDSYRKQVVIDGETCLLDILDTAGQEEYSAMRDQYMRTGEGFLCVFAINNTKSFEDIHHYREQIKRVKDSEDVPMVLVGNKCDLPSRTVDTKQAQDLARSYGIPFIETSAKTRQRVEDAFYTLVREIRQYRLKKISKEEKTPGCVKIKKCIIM
Experimental: (§1) 293H cells were seeded in 6-wells at 0.6×10^6 cells per well and transfected next day with 5 μg of Ras wild-type, or G12C, G12D or G12V mutant DNA plasmid vector using transfection reagent Lipofectamine 3000. Next day cells were treated with 3.125-25 μM of Ras compounds for 1 hour. Wild-type transfected cells were subsequently treated with 100 ng/ml EGF for 2 minutes. Cells were washed once in ice-cold PBS, lysed in complete lysis buffer on ice, and processed by G-LISA according to Cytoskeleton protocol.

Panc1-G12D = assay: Viability assay (CellTiterBlue, 72 hr) Panc1; settings: Homo sapiens, PANC-1, GI50, CellTiterBlue, Panc1 K-Ras G12D, read-out: 72 hr Cell Viability Panc1 (G12D)
Experimental: (§2) Viability assays were performed on exemplary compounds and Table 2 below lists exemplary results for selected compounds tested on K-Ras wild type cell lines (Ishikawa, U87-MG, HCC827, and A375) and various K-Ras mutant cell lines (Panc1-G12D; Panc10.05-G12D; HCT116-G31D). Results are expressed in μM and corresponding structures are shown in FIGS. 2A-2G and Examples 1-152, above.
(§3) Cells are counted and seeded at 1000 cells/36 ul medium/well into 384-well microplates. Cells are returned to 37° C. CO2 incubator for 18 hr. Drug is made as 200× in DMSO and diluted into medium to 10×. To each well is added 4 ul 10× drug, and plates are returned to the incubator. Final assay DMSO concentration is 0.5%. After 72 hr, 8 ul CellTiterBlue (Promega) is added to each well. After 3 hr, fluorescence (Ex550/Em590) is determined on the Victor Plate Reader (Perkin Elmer). Assay range is determined by DMSO control (100% viability) and 100 uM tamoxifen (0% viability). GI50 values are calculated using Graphpad Prism.

HCT116-G31D = assay: Viability assay (CellTiterBlue, 72 hr) HCT116; settings: Homo sapiens, HCT-116, GI50, CellTiterBlue, HCT116 K-Ras G13D, read-out: 72 hr Cell Viability HCT116 (G13D)
Experimental: as §2, §3

[1] = system: HCC827 (K-Ras wild type cell line); assay: Viability assay (CellTiterBlue, 72 hr) HCC827; settings: Homo sapiens, GI50, CellTiterBlue, HCC827 K-Ras wild-type
Experimental: as §2, §3

K-Ras G12D = biological target: T2, K-Ras G12D (Homo sapiens, UniProt P01116, G12D); assay: G-LISA Ras activation, 293H cells transfected with G12D mutant; settings: compound 1 hour
T2 construct: expressed in transfected cells; host or cells: 293H cells
T2 sequence (P01116 whole entry G12D): as the sequence (P01116 whole entry) above, with G12D counted along it
Experimental: as §1

Panc10.05-G12D = assay: Viability assay (CellTiterBlue, 72 hr) Panc10.05; settings: Homo sapiens, Panc1005, GI50, CellTiterBlue, Panc10.05 K-Ras G12D, read-out: 72 hr Cell Viability Panc10.05 (G12D)
Experimental: as §2, §3

[2] = system: U87-MG (K-Ras wild type cell line); assay: Viability assay (CellTiterBlue, 72 hr) U87-MG; settings: Homo sapiens, U-87 MG, GI50, CellTiterBlue, U87-MG K-Ras wild-type
Experimental: as §2, §3

[3] = system: Ishikawa (K-Ras wild type cell line); assay: Viability assay (CellTiterBlue, 72 hr) Ishikawa; settings: Homo sapiens, GI50, CellTiterBlue, Ishikawa K-Ras wild-type
Experimental: as §2, §3

[4] = system: phospho-ERK in Panc1 (G12D); assay: In-Cell Western phospho-ERK, Panc1; settings: Homo sapiens, PANC-1, 1 h; Panc1, one hour treatment; read-out: In-Cell Western Panc1 (G12D) Erk (P)
Experimental: (§4) In-cell phosphorylation assays for Erk and Akt were performed on several of the compounds and exemplary results are shown in Table 3 below using HCC827 and A375 cell lines for wild type K-Ras and Panc1 and Panc10.05 cell lines for G12D K-Ras mutants. Results are expressed in μM and corresponding structures are shown in FIGS. 2A-2G and Examples 1-152, above.
(§5) Cells are seeded in complete medium into black sided, clear-bottom 384-well microplates at 3000 cells/[…]/well. Plates are returned to 37° C. CO2 incubator for 18 hr. Drug is made as 200× in DMSO and diluted into medium to 10×. To each well is added 4 ul 10× test article or controls, and plates are returned to the incubator. Final assay DMSO concentration is 0.5%. After one hour, cells are fixed in formaldehyde, rinsed & permeabilized with triton X-100, and blocked with BSA/Goat serum blocking solution. Primary phospho-Akt and phospho-ERK antibodies are added and plates are incubated overnight at 4° C. Plates are rinsed with Tween-20 wash buffer and secondary antibody (Goat anti-rabbit, Thermofisher) is added. After 2 hours, plates are rinsed in Tween-20 wash buffer, and then PBS. Plates are imaged on the Celigo (Nexcelom) and cellular fluorescence is quantitated. Full inhibition of phospho-Akt is achieved with 1 uM BEZ235 (Sellekchem), while full inhibition of phospho-ERK is achieved with 1 uM MEK Inhibitor II Calbiochem). EC50 values are calculated using Graphpad Prism.

[5] = system: phospho-Akt in Panc1 (G12D); assay: In-Cell Western phospho-Akt, Panc1; settings: Homo sapiens, PANC-1, 1 h; Panc1, one hour treatment; read-out: In-Cell Western Panc1 (G12D) Akt (P)
Experimental: as §4, §5

[6] = system: phospho-ERK in Panc10.05 (G12D); assay: In-Cell Western phospho-ERK, Panc10.05; settings: Homo sapiens, Panc1005, 1 h; Panc10.05, one hour treatment; read-out: In-Cell Western Panc10.05 (G12D) Erk (P)
Experimental: as §4, §5

SMILES	IC50 (wild type K-Ras) [µM]	pIC50 (Panc1-G12D)	pIC50 (HCT116-G31D)	pIC50 [1]	IC50 (K-Ras G12D) [µM]	pIC50 (Panc10.05-G12D)	pIC50 [2]	pIC50 [3]	pEC50 [4]	pEC50 [5]	pEC50 [6]
Cc1nc(C2CCOC2)oc1C(=O)Nc1nc(-c2ccc3c(c2)CCC(=O)N3Cc2cccnc2)cs1 (stereo not shown) [Compound 85, 4-methyl-N-(4-(2-oxo-1-(pyridin-3-ylmethyl)-1,2,3,4-tetrahydroquinolin-6-yl)thiazol-2-yl)-2-(tetrahydrofuran-3-yl)oxazole-5-carboxamide]	23.4	5.10	5.40	5.30	7.6	5.22	5.30	–	–	–	–
Cc1nc(C2CCOC2)oc1C(=O)Nc1nc(-c2ccc3c(c2)CCC(=O)N3)cs1 (stereo not shown) [Compound 10, 4-methyl-N-(4-(2-oxo-1,2,3,4-tetrahydroquinolin-6-yl)thiazol-2-yl)-2-(tetrahydrofuran-3-yl)oxazole-5-carboxamide]	> 25	5.40	5.30	4.64	22	5.70	5.30	5.70	–	–	–
Cc1nc(C)c(C(=O)Nc2nc(-c3ccc4c(c3)CCC(=O)N4Cc3ccccc3)cs2)o1 [Compound 60, N-(4-(1-benzyl-2-oxo-1,2,3,4-tetrahydroquinolin-6-yl)thiazol-2-yl)-2,4-dimethyloxazole-5-carboxamide]	8.6	5.70	5.15	–	7.4	4.89	4.85	5.22	5.40	5.22	5.52
Cc1nc(C2CC2)oc1C(=O)Nc1nc(-c2ccc3c(c2)CCC(=O)N3CCc2ccccc2)cs1 [Compound 61, 2-cyclopropyl-4-methyl-N-(4-(2-oxo-1-phenethyl-1,2,3,4-tetrahydroquinolin-6-yl)thiazol-2-yl)oxazole-5-carboxamide]	8.5	5.80	5.52	–	5.1	6.06	5.89	5.68	6.28	5.70	5.70
CCc1nc(C)c(C(=O)Nc2nc(-c3ccc4c(c3)CCC(=O)N4Cc3ccccc3)cs2)o1 [Compound 59, N-(4-(1-benzyl-2-oxo-1,2,3,4-tetrahydroquinolin-6-yl)thiazol-2-yl)-2-ethyl-4-methyloxazole-5-carboxamide]	6.5	5.70	5.22	–	5.8	4.96	5.00	5.40	5.52	5.22	5.52
CCn1cc(C(=O)Nc2nc(-c3ccc4c(c3)CCC(=O)N4)cs2)c(C)n1 [Compound 25, 1-ethyl-3-methyl-N-(4-(2-oxo-1,2,3,4-tetrahydroquinolin-6-yl)thiazol-2-yl)-1H-pyrazole-4-carboxamide]	10.7	5.70	5.70	5.15	6.6	6.11	5.70	5.96	–	–	–

The next lines start with results.

IC50 (wild type K-Ras) [µM]	pIC50 (Panc1-G12D)	pIC50 (HCT116-G31D)	pIC50 [1]	IC50 (K-Ras G12D) [µM]	pIC50 (Panc10.05-G12D)	pIC50 [2]	SMILES	pIC50 [3]	pEC50 [4]	pEC50 [5]	pEC50 [6]
12.6	5.30	5.40	4.77	13.9	6.17	5.70	COc1cccc(CN2C(=O)CCc3cc(-c4csc(NC(=O)c5oc(C)nc5C)n4)ccc32)c1 [Compound 76, N-(4-(1-(3-methoxybenzyl)-2-oxo-1,2,3,4-tetrahydroquinolin-6-yl)thiazol-2-yl)-2,4-dimethyloxazole-5-carboxamide]	5.30	–	–	–
> 25	< 4.60	5.00	< 4.60	24.6	< 4.60	4.89	Cc1nc(C)c(C(=O)Nc2nc(-c3ccc4c(c3)CCC(=O)N4Cc3cncc4ccccc34)cs2)o1 [Compound 82, N-(4-(1-(isoquinolin-4-ylmethyl)-2-oxo-1,2,3,4-tetrahydroquinolin-6-yl)thiazol-2-yl)-2,4-dimethyloxazole-5-carboxamide]	5.40	–	–	–
16.7	5.30	5.70	5.70	6.1	5.30	5.70	Cc1nc(C)c(C(=O)Nc2nc(-c3ccc4c(c3)CCC(=O)N4CC3CCCN(C(=O)OC(C)(C)C)C3)cs2)o1 (stereo not shown) [Compound 86, tert-butyl 3-((6-(2-(2,4-dimethyloxazole-5-carboxamido)thiazol-4-yl)-2-oxo-3,4-dihydroquinolin-1(2H)-yl)methyl)piperidine-1-carboxylate]	–	–	–	–
> 25	5.70	6.00	5.22	10.6	5.96	5.85	Cn1nc2ccccc2c1C(=O)Nc1nc(-c2ccc3c(c2)CCC(=O)N3)cs1 [Compound 26, 2-methyl-N-(4-(2-oxo-1,2,3,4-tetrahydroquinolin-6-yl)thiazol-2-yl)-2H-indazole-3-carboxamide]	> 6.10	–	–	–
16.6	5.00	5.52	5.40	14.2	5.10	5.40	Cc1nc(C)c(C(=O)Nc2nc(-c3ccc4c(c3)CCC(=O)N4Cc3cccc(N)c3)cs2)o1 [Compound 90, N-(4-(1-(3-aminobenzyl)-2-oxo-1,2,3,4-tetrahydroquinolin-6-yl)thiazol-2-yl)-2,4-dimethyloxazole-5-carboxamide]	–	–	–	–
18.8	5.15	5.52	4.92	19.2	6.13	5.52	Cc1nc(C)c(C(=O)Nc2nc(-c3ccc4c(c3)CCC(=O)N4Cc3cccc4c3OCO4)cs2)o1 [Compound 73, N-(4-(1-(benzo[d][1,3]dioxol-4-ylmethyl)-2-oxo-1,2,3,4-tetrahydroquinolin-6-yl)thiazol-2-yl)-2,4-dimethyloxazole-5-carboxamide]	5.40	–	–	–
19.9	5.15	5.40	5.52	4.9	5.15	5.40	Cc1nc(C2CCOC2)sc1C(=O)Nc1nc(-c2ccc3c(c2)CCC(=O)N3Cc2cccnc2)cs1 (stereo not shown) [Compound 84, 4-methyl-N-(4-(2-oxo-1-(pyridin-3-ylmethyl)-1,2,3,4-tetrahydroquinolin-6-yl)thiazol-2-yl)-2-(tetrahydrofuran-3-yl)thiazole-5-carboxamide]	–	–	–	–
